Laboratory results as given in patent US4954487A, “Penetrating topical pharmaceutical compositions” (The Procter & Gamble Company, priority 1989, dated 1990).

Experiment: Solubility of envelope-disordering compounds in the diol compounds
Conditions: typical compositions

Compound: CCCCCCCCCCO [n-decanol]
- soluble in the diol compounds / same compositions up to: up to 50 % by weight
